# Tested on: high affinity NP-specific IgG response
# Experiment: T-cell dependent NP-specific IgG response after NP-OVAL immunization, ELISA (Example 2)
# Assay type: in vivo, mice
# Settings: 40 mg/kg/day via food admix from two days before NP-OVAL immunization until day 35, vs vehicle
# Protocol: 6 to 8-weeks-old female mice C57BL/6-Tg (hIgG1,k,l) were purchased from Charles River Laboratories (Germany) and housed at the animal facilities in room with air-conditioned under a 12 hours light/dark cycle in macrolon boxes with enriched environment and free access to water and food. The mice were injected at day −2 subcutaneously with 20 μg/mouse of NP-OVAL (4-Hydroxy-3-nitrophenylacetyl hapten conjugated to ovalbumin, Biosearch Technologies, USA, Batch No 060368) with adjuvant (Alhydrogel, InvivoGen #vac-alu-250) at the both flanks or without adjuvant at day 28. The dosage of (2S,4R)-4-[4-(1-methyl-1H-pyrazol-4-yl)-2-trifluoromethyl-benzenesulfonyl]-1-(1-trifluoromethyl-cyclopropanecarbonyl)-pyrrolidine-2-carboxylic acid (1-cyano-cyclopropyl)-amide consumption was 0 (vehicle), 1, 10, 40 mg/kg/day. […]
# Nunc Maxisorp flat-bottom 96 well ELISA plates were coated with 100 μl per well of NP(4)-BSA (Biosearch Technologies N-5050L; 1 mg/mL) at 1 μg/mL in NaHCO3100 mM buffer and incubated overnight at +4° C. […] 100 μl of substrate P-nitrophenyl phosphate ready to use (Life Technologies, Cat no 002212) were added per well and after 10 min incubation at room temperature, the OD at 405 nm was read as an end-point measurement with a Versamax ELISA reader.
smiles,measurement,setting,value
"Cn1cc(-c2ccc(S(=O)(=O)[C@@H]3C[C@@H](C(=O)NC4(C#N)CC4)N(C(=O)C4(C(F)(F)F)CC4)C3)c(C(F)(F)F)c2)cn1 [cathepsin S inhibitor, (2S,4R)-4-[4-(1-methyl-1H-pyrazol-4-yl)-2-trifluoromethyl-benzenesulfonyl]-1-(1-trifluoromethyl-cyclopropanecarbonyl)-pyrrolidine-2-carboxylic acid (1-cyano-cyclopropyl)-amide]",NP-specific IgG levels (T-cell dependent IgG response against NP),,significantly reduces NP-specific IgG levels
same,NP-specific IgG levels (T-cell dependent IgG response against NP),listed as cathepsin S antagonist,effectively abrogating the T-cell dependent IgG response against NP

# From US12419862B2, “Use of a cathepsin s inhibitor against the formation of anti-drug antibodies” (Hoffmann-La Roche Inc., priority 2018, dated 2025)
